From US12031087B2, “Oxygenated solvents for improved production of oil and gas” (Board of Regents, The University of Texas System, priority 2019, dated 2024)

Test: Density of crude oil/3p mixtures (in-line densitometer)
Assay type: physicochemical
Details: 347 K
Description: Density and viscosity experiments. […] The system consists mainly of automated pumps, a sample accumulator, an in-line fluid densitometer, an in-line viscometer, an oven, and an effluent accumulator. The pump (Teledyne ISCO 100DX) maintained the system pressure automatically by water.
In the density measuring cell (Anton Paar DMA-HPM), fluid's density is measured in a U-shaped tube, in the range from 0 to 3000 kg/m^3. The instrument precision of the density meter is ±1 kg/m^3. Anton Paar DMA-HPM uses the method of oscillating U-tube for its density measurement, in which the sample's density is calculated from the sample's period of oscillation. The in-line viscometer (ViscoPro 2100) measures the viscosity of a fluid in the range from 0.2 to 2 cp. The instrument precision of the viscometer is ±0.02 cp and repeatability is ±0.5% of the reading. During the viscosity measurement, the magnetic piston is surrounded by the fluid sample and oscillates under magnetic force. The sample's viscosity is calculated from the time required for the piston to complete a two-way cycle. The viscometer and density meter were placed in a Despatch oven (model LAC2-18-8). Light-emitting diode screens that display measured data from the fluid densitometer and viscometer were connected outside the oven. The absolute pressure of the system was measured with a pressure gauge (Omega PX459-2.5KGI-EH).
Densities and viscosities were measured for the following mixtures of crude oil and 3p: 81.4 wt % crude oil and 18.6 wt % 3p (33 mol % 3p), 59.0 wt % crude oil and 41.0 wt % 3p (60 mol % 3p), and 35.1 wt % crude oil and 64.9 wt % 3p (80 mol % 3p). Each mixture was mixed in a glass bottle with a magnetic mixer before placing it in the accumulator.
Before each measurement, the system was cleaned thoroughly with toluene. Then, the system was dried by air and evacuated. Next, the fluid mixture was pumped into the system from the accumulator. Then, the temperature in the oven was increased to 347 K. When the temperature in the oven was stable, the mixture was measured for viscosities and densities at different pressures, ranging from 101 kPa to 10342 kPa.

- density of crude oil diluted with 18.6 wt % 3-pentanone (atmospheric pressure): 772 kg/m^3
- Density (crude oil with 18.6 wt % (33 mol %) 3-pentanone, 103.97 kPa): 771.8049 kg/m^3
- Density (crude oil with 18.6 wt % (33 mol %) 3-pentanone, 1385.02 kPa): 773.0452 kg/m^3
- Density (crude oil with 18.6 wt % (33 mol %) 3-pentanone, 3452.00 kPa): 775.0159 kg/m^3
- Density (crude oil with 18.6 wt % (33 mol %) 3-pentanone, 6899.03 kPa): 778.2247 kg/m^3
- Density (crude oil with 18.6 wt % (33 mol %) 3-pentanone, 10345.03 kPa): 781.3632 kg/m^3
- Density (crude oil with 41.0 wt % (60 mol %) 3-pentanone, 107.01 kPa): 768.9360 kg/m^3
- Density (crude oil with 41.0 wt % (60 mol %) 3-pentanone, 1379.02 kPa): 770.3187 kg/m^3
- Density (crude oil with 41.0 wt % (60 mol %) 3-pentanone, 3447.03 kPa): 772.3456 kg/m^3
- Density (crude oil with 41.0 wt % (60 mol %) 3-pentanone, 3891.03 kPa): 775.7424 kg/m^3
- Density (crude oil with 41.0 wt % (60 mol %) 3-pentanone, 10343.03 kPa): 779.0497 kg/m^3
- Density (crude oil with 64.9 wt % (80 mol %) 3-pentanone, 101.01 kPa): 765.4374 kg/m^3
- Density (crude oil with 64.9 wt % (80 mol %) 3-pentanone, 1383.02 kPa): 766.7794 kg/m^3
- Density (crude oil with 64.9 wt % (80 mol %) 3-pentanone, 3445.03 kPa): 769.0788 kg/m^3
- Density (crude oil with 64.9 wt % (80 mol %) 3-pentanone, 6896.00 kPa): 772.6733 kg/m^3
- Density (crude oil with 64.9 wt % (80 mol %) 3-pentanone, 10342.00 kPa): 776.2332 kg/m^3
SMILES: CCC(=O)CC [3-pentanone]
